Experimental findings from patent US10065990B2, “Cyclic peptide compound, and preparation method, pharmaceutical composition and use thereof” (HANGZHOU GUANYU BIO-MEDICAL CO., LTD, priority 2013, dated 2018) are described below.

The term GI50 denotes the concentration at which growth is held to half of that of the control.

Like-named read-outs stand apart in the source and are kept apart here.

Test [1] concerns MDA-MB-231 (breast cancer cells). The test is described as follows: MTT cancer cell growth inhibition. Conditions: Homo sapiens, MDA-MB-231, 72 h, read-out: GI50 MDA-MB-231, MTT, 72 hours incubation, MDA-MB-231 cells. The test is classed as cell-based. An outline of the steps: (§1)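 Seed 1500 cells/well, incubate overnight. Add compound, 10^−5 to 10^−10 M final, n=3; culture 72 h, 37° C., 5% CO2. Add MTT, 4 h. Discard supernatant, dissolve in DMSO. Read 570 nm; calculate viability and GI50.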

Test [2] relates to N-87 (human gastric cancer cells). Description: MTT cancer cell growth inhibition. It counts as cell-based. Conditions: Homo sapiens, 72 h, MTT, 72 hours incubation, N-87 cells; read-out: GI50 N-87. The gist of the method:
as §1

Test [3] has as its system PANC-1 (Pac-1, human pancreatic cancer cells). Description: MTT cancer cell growth inhibition. The test is classed as cell-based. Conditions: Homo sapiens, PANC-1, 72 h, MTT, 72 hours incubation, read-out: GI50 PAN. An outline of the steps: as §1
Test [4] concerns HCC827 (human non-small cell lung cancer cells). The test is described as follows: MTT cancer cell growth inhibition. It counts as cell-based. Conditions: Homo sapiens, HCC827, 72 h, MTT, 72 hours incubation, HCC827 cells; read-out: GI50 HCC827. An outline of the steps: as §1
For test [5], the system named is KBM5-T315I (human chronic myelogenous leukemia). The test is described as follows: MTT cancer cell growth inhibition. The conditions noted are these: Homo sapiens, 72 h, MTT, 72 hours incubation, KBM5-T315I cells; read-out: GI50 KBM5-T315I. It counts as cell-based. The gist of the method: as §1
Test [6] concerns Bel-7402 (human hepatoma cells). The test is described as follows: MTT cancer cell growth inhibition. It counts as cell-based. Conditions: Homo sapiens, Bel-7402, 72 h, MTT, 72 hours incubation, Bel-7402 cells; read-out: GI50 Bel-7402. An outline of the steps: as §1
The test system of test [7] is Hela (human cervical cancer cells). Description: MTT cancer cell growth inhibition. The test is classed as cell-based. Conditions: Homo sapiens, HeLa, 72 h, MTT, 72 hours incubation, read-out: GI50 Hela. An outline of the steps: as §1
The test system of test [8] is A549 (human lung cancer cells). The test is described as follows: MTT cancer cell growth inhibition. It counts as cell-based. The conditions noted are these: Homo sapiens, A549, 72 h, MTT, 72 hours incubation, read-out: GI50 A54. An outline of the steps: as §1
Test [9] deals with K562 (human leukemia cells). The test is described as follows: MTT cancer cell growth inhibition. The test is classed as cell-based. Conditions: Homo sapiens, K562, 72 h, MTT, 72 hours incubation, K562 cells; read-out: GI50 K562. An outline of the steps: as §1
The test system of test [10] is H1975 (non-small cell lung adenocarcinoma). Description: MTT cancer cell growth inhibition. The test is classed as cell-based. The conditions noted are these: Homo sapiens, NCI-H1975, 72 h, MTT, 72 hours incubation, H1975 cells; read-out: GI50 H1975. The gist of the method:
as §1

For test [11], the system named is KBM-5 (human chronic myelogenous leukemia). Description: MTT cancer cell growth inhibition. It counts as cell-based. Conditions: Homo sapiens, KBM5, 72 h, MTT, 72 hours incubation, KBM-5 cells; read-out: GI50 KBM-5. An outline of the steps:
as §1

Test [12] deals with BGC-823 (human gastric cancer cells). Description: MTT cancer cell growth inhibition. It counts as cell-based. The conditions noted are these: Homo sapiens, BGC-823, 72 h, MTT, 72 hours incubation, read-out: GI50 BG. An outline of the steps: as §1
For test [13], the system named is SGC-7901 (human gastric cancer cells). Description: MTT cancer cell growth inhibition. It counts as cell-based. The conditions noted are these: Homo sapiens, SGC-7901, 72 h, MTT, 72 hours incubation, SGC-7901 cells; read-out: GI50 SGC-7901. The gist of the method: as §1
For test [14], the system named is U937 (human leukemia cells). Description: MTT cancer cell growth inhibition. It counts as cell-based. The conditions noted are these: Homo sapiens, U-937, 72 h, MTT, 72 hours incubation, read-out: GI50 U93. An outline of the steps:
as §1

The test system of test [15] is HT1080 (human fibrosarcoma cells). The test is described as follows: MTT cancer cell growth inhibition. Conditions: Homo sapiens, HT-1080, 72 h, MTT, 72 hours incubation, read-out: GI50 HT1. It counts as cell-based. The gist of the method:
as §1

Test [16] has as its system lncap (prostate cancer cells). The test is described as follows: MTT cancer cell growth inhibition. It counts as cell-based. The conditions noted are these: Homo sapiens, LNCaP, 72 h, MTT, 72 hours incubation, read-out: GI50 lnca. The gist of the method: as §1
Test [17] has as its system Huh-7 (human hepatoma cells). Description: MTT cancer cell growth inhibition. It counts as cell-based. Conditions: Homo sapiens, Huh-7, 72 h, MTT, 72 hours incubation, Huh-7 cells; read-out: GI50 Huh-7. An outline of the steps: as §1
The subject of test [18] is MCF-7 (human breast cancer cells). The test is described as follows: MTT cancer cell growth inhibition. It counts as cell-based. Conditions: Homo sapiens, MCF7, 72 h, 72 hours incubation, read-out: GI50 MCF. The gist of the method:
as §1

Test [19] has as its system DU145 (human prostate cancer cells). Description: MTT cancer cell growth inhibition. It counts as cell-based. The conditions noted are these: Homo sapiens, DU-145, 72 h, MTT, 72 hours incubation, read-out: GI50 Du1. The gist of the method:
as §1

For test [20], the system named is MOLT-4 (human acute lymphoblastic leukemia cells). The test is described as follows: MTT cancer cell growth inhibition. The test is classed as cell-based. Conditions: Homo sapiens, MOLT-4, 72 h, MTT, 72 hours incubation, read-out: GI50 Mol. The gist of the method: as §1
The target in a further test is T1, HDAC7 (Homo sapiens, UniProt Q8WUI4).
T1 sequence (Q8WUI4 1-952): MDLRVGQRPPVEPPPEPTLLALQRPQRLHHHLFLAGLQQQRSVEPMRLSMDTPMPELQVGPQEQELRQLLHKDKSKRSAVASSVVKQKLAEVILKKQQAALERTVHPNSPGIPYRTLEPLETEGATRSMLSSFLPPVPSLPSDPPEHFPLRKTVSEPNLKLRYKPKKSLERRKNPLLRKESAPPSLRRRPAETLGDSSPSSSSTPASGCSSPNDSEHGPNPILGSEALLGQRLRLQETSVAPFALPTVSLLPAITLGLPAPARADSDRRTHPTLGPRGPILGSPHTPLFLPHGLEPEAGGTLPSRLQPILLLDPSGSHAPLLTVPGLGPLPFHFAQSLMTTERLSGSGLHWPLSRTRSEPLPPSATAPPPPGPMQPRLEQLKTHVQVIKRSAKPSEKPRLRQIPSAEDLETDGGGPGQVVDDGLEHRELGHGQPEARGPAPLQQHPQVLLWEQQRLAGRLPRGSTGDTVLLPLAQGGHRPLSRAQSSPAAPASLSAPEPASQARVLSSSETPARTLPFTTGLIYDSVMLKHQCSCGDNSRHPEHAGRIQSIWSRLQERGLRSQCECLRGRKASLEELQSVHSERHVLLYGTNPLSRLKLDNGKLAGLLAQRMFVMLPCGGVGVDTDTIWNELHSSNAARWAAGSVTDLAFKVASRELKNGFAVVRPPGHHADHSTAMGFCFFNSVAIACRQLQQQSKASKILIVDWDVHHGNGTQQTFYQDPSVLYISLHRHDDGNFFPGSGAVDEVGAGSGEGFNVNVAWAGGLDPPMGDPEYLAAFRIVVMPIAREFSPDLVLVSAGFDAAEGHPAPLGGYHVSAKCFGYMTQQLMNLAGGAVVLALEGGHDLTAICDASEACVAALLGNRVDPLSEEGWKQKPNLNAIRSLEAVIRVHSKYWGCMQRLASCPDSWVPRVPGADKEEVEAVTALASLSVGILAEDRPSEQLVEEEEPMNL
The test is described as follows: HDAC biochemical activity measurement (fluorescent substrate deacetylation).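 Further: fluorogenic deacetylation assay using acetyl-lysine substrate at 20 µM, enzyme and compound incubated 30 min at 37 °C, then developer added, fluorescence read at 360/460 nm.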 The conditions noted are these: HDAC7; 37° C. 30 minutes.

As for `C=C1NC(=O)c2ccc(F)c(n2)CNC(=O)C[C@@H](/C=C/CCSC(C)=O)OC(=O)[C@H](C)NC1=O` [Compound 92], the GI50 stood at 43 nM in test [1]; 15 nM in test [2]; 60 nM in test [3]; 62 nM in test [4]; 29 nM in [5]; 62 nM in test [6]. Also, the 50% growth inhibitory concentration (GI50) was 40 nM in [7]; 50 nM in [8]; 22 nM in [9]; 29 nM in [10]; 42 nM in test [11]; 10 nM in [12]. Besides, the GI50 in test [13] came to 57 nM; in test [14], 20 nM; in [15] it was 60 nM; in test [16] it was 40 nM; in test [17], 43 nM; in test [18], 20 nM. Further, the concentration for 50% growth inhibition (GI50) turned out to be 20 nM in test [19] and 40 nM in [20]. Besides, on HDAC7, the “IC50 HDAC7” value is recorded as “no activity”.
As to `C/C=C1\NC(=O)c2nc(ccc2F)CNC(=O)C[C@@H](/C=C/CCS)OC(=O)[C@H](CC)NC1=O` [Compound 109], the GI50 in [1] turned out to be 126 nM; in test [2], 61 nM; in test [3] it was 70 nM; in test [4], 51 nM; in test [5], 71 nM; in test [6], 56 nM. In addition, the concentration for 50% growth inhibition (GI50) came to 70 nM in test [7]; 50 nM in test [8]; 28 nM in test [9]; 31 nM in test [10]; 82 nM in test [11]; 20 nM in test [12]. Also, the GI50 in test [13] came out at 42 nM; in test [14], 40 nM; in test [15] it was 70 nM; in [16], 30 nM; in [17], 46 nM; in test [18], 20 nM. Moreover, the GI50 in [19] worked out at 40 nM; in test [20], 30 nM. Also, on HDAC7, the “IC50 HDAC7” value is given as “no activity”.
In the case of `CSc1cc2nc(c1)C(=O)NC(=C(C)C)C(=O)N[C@@H](C(C)C)C(=O)O[C@H](/C=C/CCSC(C)=O)CC(=O)NC2` [Compound 208], the GI50 in test [1] came to 18 nM; in test [2] it was 56 nM; in test [3] (PANC-1 cells), 30 nM; in [4] it was 67 nM; in test [5] it was 49 nM; in test [6] it was 17 nM. Further, the concentration for 50% growth inhibition (GI50) in test [7] (Hela cells) came to 80 nM; in test [8] (A549 cells), 50 nM; in [9] it was 76 nM; in test [10], 35 nM; in test [11] it was 18 nM; in [12] (BGC-823 cells), 50 nM. The GI50 is 26 nM in test [13]; 60 nM in test [14] (U937 cells); 70 nM in [15] (HT1080 cells); 30 nM in [16] (lncap cells); 26 nM in test [17]; 30 nM in test [18] (MCF-7 cells). In addition, the GI50 in test [19] (DU145 cells) and in [20] (MOLT-4 cells) was 40 nM each time. Besides, the “IC50 HDAC7” value at HDAC7 was “no activity”.
Regarding `C/C=C1\NC(=O)c2nc(ccc2F)CNC(=O)C[C@@H](/C=C/CCS)OC(=O)[C@H](Cc2ccc(O)cc2)NC1=O` [Compound 128], the 50% growth inhibitory concentration (GI50) in test [1] turned out to be 55 nM; in test [2], 35 nM; in test [3], 130 nM; in test [4], 39 nM; in [5] it was 53 nM; in test [6] it was 53 nM. The 50% growth inhibitory concentration (GI50) in [7] turned out to be 40 nM; in test [8], 30 nM; in test [9], 73 nM; in [10], 23 nM; in test [11] it was 41 nM; in test [12], 70 nM. The GI50 is 23 nM in test [13]; 50 nM in test [14]; 70 nM in [15]; 100 nM in [16]; 49 nM in test [17]; 50 nM in test [18]. In addition, the 50% growth inhibitory concentration (GI50) in test [19] was found to be 50 nM; in test [20] it was 20 nM. In addition, at HDAC7, the “IC50 HDAC7” value is recorded as “no activity”.
For the molecule `C/C=C1\NC(=O)c2ccc(SC)c(n2)CNC(=O)C[C@@H](/C=C/CCSC(=O)CCCCCCC)OC(=O)[C@H](C(C)C)NC1=O` [Compound 149], the concentration for 50% growth inhibition (GI50) in test [1] came out at 35 nM; in [2] it was 39 nM; in [3] (PANC-1 cells), 30 nM; in test [4], 29 nM; in test [5], 41 nM; in test [6] it was 63 nM. Further, the GI50 in [7] (Hela cells) is 50 nM; in test [8] (A549 cells), 20 nM; in test [9] it was 32 nM; in [10], 70 nM; in test [11] it was 21 nM; in test [12] (BGC-823 cells), 30 nM. Moreover, the concentration for 50% growth inhibition (GI50) in test [13] was found to be 42 nM; in [14] (U937 cells), 20 nM; in [15] (HT1080 cells) it was 80 nM; in test [16] (lncap cells) it was 50 nM; in test [17] it was 75 nM; in test [18] (MCF-7 cells), 60 nM. Besides, the GI50 stood at 60 nM in [19] (DU145 cells) and 80 nM in [20] (MOLT-4 cells). The “IC50 HDAC7” value at HDAC7 is on record as “no activity”.
